Results from article PMC6588243, “Fate of ptaquiloside—A bracken fern toxin—In cattle” (PLoS ONE, 2019).

Key:
Type in all cases: in vivo, Jersey heifers
[1] = Urinary recovery of PTA and PTB after intravenous administration of PTA; conditions: twelve hours after iv administration of PTA
Protocol: Intravenous administration of PTA. In Experiment 1 the dose of purified PTA (0.21 mg kg^-1 body weight (b.w.) / 0.527 μmoles kg^-1) was dissolved in 10 mL of sterile water in a brown glass vial 1 hour before administration and protected from light. The solution was injected through a catheter (Cavafix Certo: 45 cm, 16 G; B. Braun Melsungen AG, Melsungen, Germany) placed in the right jugular vein. Blood samples were collected through another catheter placed in the left jugular vein. Blood samples were collected in heparinized glass tubes before and at predetermined times (10, 20, 30, 45 min and 1, 2, 4, 6, 8, 12, 21 and 24 hours) after PTA administration. The blood was centrifuged for 15 min at 3000 g to separate plasma which then was stored immediately at -18°C until assayed within a week following the method of Aranha et al.. Urine was collected quantitatively in urinary bags (Ratiomed GmBH, München, Germany) through a Foley catheter (Rusch Silasil no 16; Teleflex, Milan, Italy) inserted into the bladder. […]
(§1) PTA and PTB were analysed by LC-MS after purification using solid phase extraction (SPE) columns as reported in Aranha et al.. The limit of quantification of PTA and PTB in plasma was 3.0 x 10^−3 μM and 9.30 x 10^−3 μM, respectively. Limit of quantifications in diluted urine was 13 x 10^−3 μM for PTA and 8.28 x 10^−3μM for PTB.

[2] = Toxicokinetics of PTA and PTB in plasma after intravenous administration of PTA
Protocol: Two heifers (no’s 4848 and 4849) were used in a series of five experiments (Table 1) in a cross-over design including intravenous administration of pure PTA, oral administration of bracken extract and oral administration of dried bracken fern. At least 2 weeks elapsed between each experiment.
Intravenous administration of PTA. In Experiment 1 the dose of purified PTA (0.21 mg kg^-1 body weight (b.w.) / 0.527 μmoles kg^-1) was dissolved in 10 mL of sterile water in a brown glass vial 1 hour before administration and protected from light. The solution was injected through a catheter (Cavafix Certo: 45 cm, 16 G; B. Braun Melsungen AG, Melsungen, Germany) placed in the right jugular vein. Blood samples were collected through another catheter placed in the left jugular vein. Blood samples were collected in heparinized glass tubes before and at predetermined times (10, 20, 30, 45 min and 1, 2, 4, 6, 8, 12, 21 and 24 hours) after PTA administration. The blood was centrifuged for 15 min at 3000 g to separate plasma which then was stored immediately at -18°C until assayed within a week following the method of Aranha et al.. Urine was collected quantitatively in urinary bags (Ratiomed GmBH, München, Germany) through a Foley catheter (Rusch Silasil no 16; Teleflex, Milan, Italy) inserted into the bladder. Samples were collected before and at predetermined times (1, 2, 4, 6, 8, 12, 20 and 24 hours) after PTA administration. Two replicates from each sample were diluted 10 times (0.5 mL: 4.5 mL) with 0.1 M acetic acid, buffered to pH 5 with ammonium acetate and frozen immediately at -18°C until assayed within a week following the method of Aranha et al.. […] In this experiment, PTA was dissolved in sterile water immediately before injection.
(§2) Concentrations of PTA in plasma of individual animals were evaluated by non-compartmental analysis. Toxicokinetic variables were calculated using standard kinetic equations. The area under the curve (AUC) and the area under the first moment curve (AUMC) were determined using combined linear and natural logarithm trapezoidal rules. The terminal elimination rate was determined using the last three data points of the curve.
as §1

[3] = One-week repeated dose trial with dried bracken, plasma toxicokinetics; conditions: for AUC0-∞ / MTT: PTB in plasma, daily PTA dose 2 mg kg^-1
Description: The two heifers used for the single dose trials were also used for the one week repeated dose study together with an additional two Jersey heifers (no’s 1550 and 1567; Harald Hansen Eftf. I/S, Slangerup, Denmark) weighing 163 to 237 kg. The additional two heifers had never been exposed to PTA or to bracken fern. A wash-out period of 20 days between the last single-dose experiment and the one week repeated dose trial was established for heifers no’s 4848 and 4849.
All four heifers were fed dried bracken powder (top-dressed and molasses added). twice a day during a period of 7 days providing a daily PTA dose of 2 mg kg^-1 (5 μmoles kg^-1). On Day 8, the heifers no 4848 and no 1567 were additionally fed in the morning and euthanized 1 hour after using a captive bolt pistol and exsanguination. The two other heifers (no 4849 and no 1550) were euthanized 15 h after the last dose on Day 7 (Fig 2).
Blank blood samples were collected before the first dose was given. On Day 1 and Day 7 blood samples were collected after the morning dose at predetermined time points between 1 and 6 h after dosing (1, 2, 3, 5 and 6 hours). On Day 2 to Day 6 blood samples were collected daily 1 hour after 50% or more of the morning feed had been ingested, since the bracken fern was not eaten instantly. On Day 8 blood samples were collected just before euthanasia. Blood samples were processed and stored as described above.
as §2

[4] = Day 1, heifer 1550, dried bracken twice a day
[5] = Day 1, heifer 1567, dried bracken twice a day
[6] = Day 1, heifer 4848, dried bracken twice a day
[7] = Day 1, heifer 4849, dried bracken twice a day
[8] = Day 7, heifer 1550, dried bracken twice a day
[9] = Day 7, heifer 1567, dried bracken twice a day
[10] = Day 7, heifer 4848, dried bracken twice a day
[11] = Day 7, heifer 4849, dried bracken twice a day

Cc1cc2c(c(C)c1CCO)C(=O)[C@H](C)C2 [PTB, pterosin B]
dose recovered in urine as PTB [1]: 12%
AUC0-∞ ([2]; PTB in plasma after iv PTA 0.141 μmoles kg^-1, heifer no 4849, head prints Experiment 2): 0.319 µM·h
AUC0-∞ ([2]; PTB in plasma after iv PTA 0.231 μmoles kg^-1, heifer no 4848, head prints Experiment 2): 0.284 µM·h
AUC0-∞ ([2]; PTB in plasma after iv PTA 0.527 μmoles kg^-1, heifer no 4848, Experiment 1): 0.596 µM·h
AUC0-∞ ([2]; PTB in plasma after iv PTA 0.527 μmoles kg^-1, heifer no 4849, Experiment 1): 0.654 µM·h
Tmax ([2]; female, Jersey, cattle, plasma, 0.21 mg kg^-1 b.w., iv PTA, first sampling point, read-out: time of peak plasma concentration of the metabolite after administration of PTA (converted)): 10 min
ratio of AUC PTB to AUC PTA ([2]; heifer no 4848, Experiments 1 and 4): approx. 0.4
ratio of AUC PTB to AUC PTA ([2]; heifer no 4849, additional iv experiment with lower dose): 0.76
AUC0-∞ ([3]; Day 1, average of four heifers): 0.774 µM·h
MTT ([3]; Day 1, average of four heifers): 3.8 h
AUC0-∞ [3, 4]: 0.386 µM·h
MTT [3, 4]: 2.3 h
AUC0-∞ [3, 5]: 1.248 µM·h
MTT [3, 5]: 4.4 h
AUC0-∞ [3, 6]: 0.873 µM·h
MTT [3, 6]: 4.6 h
AUC0-∞ [3, 7]: 0.591 µM·h
MTT [3, 7]: 3.9 h
AUC0-∞ ([3]; Day 7, average of four heifers): 0.849 µM·h
MTT ([3]; Day 7, average of four heifers): 3.4 h
AUC0-∞ [3, 8]: 0.606 µM·h
MTT [3, 8]: 3.2 h
AUC0-∞ [3, 9]: 1.264 µM·h
MTT [3, 9]: 3.6 h
AUC0-∞ [3, 10]: 0.968 µM·h
MTT [3, 10]: 3.9 h
AUC0-∞ [3, 11]: 0.558 µM·h
MTT [3, 11]: 3.0 h
transient peak of PTB in plasma as share of the PTA dose ([3]; after the morning dose): 10%
accumulation of PTB in the organism ([3]; mean AUC0-∞ Day 1 vs Day 7): not accumulated
